Test results taken from the supplement of paper PMC10307832.

Key:
Assay in all cases: relative viability (nuclei count vs DMSO), 5 days (fraction); higher = more cells survive
HCC-15 = system: HCC-15
How it was run: (§1)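 Lung cancer cell lines, seeded in 1536-well plates, were treated the following day by pin tool with a single drug or with five library-drug doses (not always all listed) in √10 steps on top of a fixed anchor-drug dose. Cells were fixed and nuclei stained in one step after 5 days, and nuclei were counted. Relative viability is the nuclei count for treated wells divided by that for vehicle wells, reported as medians of duplicate plates.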

NCI-H1793 = system: NCI-H1793
How it was run: as §1

NCI-H838 = system: NCI-H838
How it was run: as §1

COR-L23 = system: COR-L23
How it was run: as §1

NCI-H1993 = system: NCI-H1993
How it was run: as §1

NCI-H1755 = system: NCI-H1755
How it was run: as §1

NCI-H2170 = system: NCI-H2170
How it was run: as §1

NCI-H2347 = system: NCI-H2347
How it was run: as §1

NCI-H1355 = system: NCI-H1355
How it was run: as §1

HARA = system: HARA
How it was run: as §1

NCI-H1792 = system: NCI-H1792
How it was run: as §1

HOP-62 = system: HOP-62
How it was run: as §1

SK-MES-1 = system: SK-MES-1
How it was run: as §1

NCI-H647 = system: NCI-H647
How it was run: as §1

NCI-H358 = system: NCI-H358
How it was run: as §1

NCI-H522 = system: NCI-H522
How it was run: as §1

NCI-H1734 = system: NCI-H1734
How it was run: as §1

NCI-H2009 = system: NCI-H2009
How it was run: as §1

NCI-H2228 = system: NCI-H2228
How it was run: as §1

UMC-11 = system: UMC-11
How it was run: as §1

COR-L 105 = system: COR-L 105
How it was run: as §1

NCI-H1395 = system: NCI-H1395
How it was run: as §1

COc1nc(C)cnc1NS(=O)(=O)c1cccnc1-c1ccc(-c2nnco2)cc1 [Zibotentan] + N=C(N)NC(=N)NCCc1ccccc1 [Phenformin] (partner 250 µM)
relative viability (HCC-15; first compound 0.08 µM): 0.524 | relative viability (HCC-15; first compound 0.8 µM): 0.493 | relative viability (HCC-15; first compound 2.53 µM): 0.451 | relative viability (NCI-H1793; first compound 0.08 µM): 0.404 | relative viability (NCI-H1793; first compound 0.253 µM): 0.431 | relative viability (NCI-H1793; first compound 0.8 µM): 0.31 | relative viability (NCI-H1793; first compound 2.53 µM): 0.406 | relative viability (NCI-H838; first compound 0.08 µM): 0.586 | relative viability (NCI-H838; first compound 0.253 µM): 0.586 | relative viability (NCI-H838; first compound 0.8 µM): 0.55 | relative viability (NCI-H838; first compound 2.53 µM): 0.567 | relative viability (COR-L23; first compound 0.08 µM): 0.445 | relative viability (COR-L23; first compound 0.253 µM): 0.376 | relative viability (COR-L23; first compound 0.8 µM): 0.506 | relative viability (COR-L23; first compound 2.53 µM): 0.416 | relative viability (NCI-H1993; first compound 0.08 µM): 0.461 | relative viability (NCI-H1993; first compound 0.253 µM): 0.541 | relative viability (NCI-H1993; first compound 0.8 µM): 0.46 | relative viability (NCI-H1993; first compound 2.53 µM): 0.514 | relative viability (NCI-H1755; first compound 0.08 µM): 0.658 | relative viability (NCI-H1755; first compound 0.253 µM): 0.636 | relative viability (NCI-H1755; first compound 0.8 µM): 0.599 | relative viability (NCI-H1755; first compound 2.53 µM): 0.703 | relative viability (NCI-H2170; first compound 0.08 µM): 0.451 | relative viability (NCI-H2170; first compound 0.253 µM): 0.389 | relative viability (NCI-H2170; first compound 0.8 µM): 0.436 | relative viability (NCI-H2170; first compound 2.53 µM): 0.39 | relative viability (NCI-H2347; first compound 0.253 µM): 0.434 | relative viability (NCI-H2347; first compound 0.8 µM): 0.375 | relative viability (NCI-H2347; first compound 2.53 µM): 0.444 | relative viability (NCI-H1355; first compound 0.08 µM): 0.465 | relative viability (NCI-H1355; first compound 0.253 µM): 0.414 | relative viability (NCI-H1355; first compound 0.8 µM): 0.449 | relative viability (NCI-H1355; first compound 2.53 µM): 0.491 | relative viability (HARA; first compound 0.08 µM): 0.462 | relative viability (HARA; first compound 0.253 µM): 0.429 | relative viability (HARA; first compound 0.8 µM): 0.217 | relative viability (HARA; first compound 2.53 µM): 0.489 | relative viability (NCI-H1792; first compound 0.08 µM): 0.424 | relative viability (NCI-H1792; first compound 0.253 µM): 0.244 | relative viability (NCI-H1792; first compound 0.8 µM): 0.355 | relative viability (NCI-H1792; first compound 2.53 µM): 0.259 | relative viability (HOP-62; first compound 0.08 µM): 0.746 | relative viability (HOP-62; first compound 0.253 µM): 0.664 | relative viability (HOP-62; first compound 0.8 µM): 0.747 | relative viability (HOP-62; first compound 2.53 µM): 0.715 | relative viability (SK-MES-1; first compound 0.08 µM): 0.714 | relative viability (SK-MES-1; first compound 0.253 µM): 0.612 | relative viability (SK-MES-1; first compound 0.8 µM): 0.678 | relative viability (SK-MES-1; first compound 2.53 µM): 0.692 | relative viability (NCI-H647; first compound 0.08 µM): 0.472 | relative viability (NCI-H647; first compound 0.253 µM): 0.512 | relative viability (NCI-H647; first compound 0.8 µM): 0.37 | relative viability (NCI-H647; first compound 2.53 µM): 0.531 | relative viability (NCI-H358; first compound 0.08 µM): 0.288 | relative viability (NCI-H358; first compound 0.253 µM): 0.134 | relative viability (NCI-H358; first compound 0.8 µM): 0.328 | relative viability (NCI-H358; first compound 2.53 µM): 0.345 | relative viability (NCI-H522; first compound 0.08 µM): 0.614 | relative viability (NCI-H522; first compound 0.253 µM): 0.648 | relative viability (NCI-H522; first compound 0.8 µM): 0.672 | relative viability (NCI-H522; first compound 2.53 µM): 0.723 | relative viability (NCI-H1734; first compound 0.08 µM): 0.361 | relative viability (NCI-H1734; first compound 0.253 µM): 0.396 | relative viability (NCI-H1734; first compound 0.8 µM): 0.381 | relative viability (NCI-H1734; first compound 2.53 µM): 0.492 | relative viability (NCI-H2009; first compound 0.08 µM): 0.494 | relative viability (NCI-H2009; first compound 0.253 µM): 0.469 | relative viability (NCI-H2009; first compound 0.8 µM): 0.542 | relative viability (NCI-H2009; first compound 2.53 µM): 0.481 | relative viability (NCI-H2228; first compound 0.08 µM): 0.324 | relative viability (NCI-H2228; first compound 0.253 µM): 0.314 | relative viability (NCI-H2228; first compound 0.8 µM): 0.444 | relative viability (NCI-H2228; first compound 2.53 µM): 0.415 | relative viability (UMC-11; first compound 0.08 µM): 0.318 | relative viability (UMC-11; first compound 0.253 µM): 0.291 | relative viability (UMC-11; first compound 0.8 µM): 0.312 | relative viability (UMC-11; first compound 2.53 µM): 0.346 | relative viability (COR-L 105; first compound 0.08 µM): 0.382 | relative viability (COR-L 105; first compound 0.253 µM): 0.423 | relative viability (COR-L 105; first compound 0.8 µM): 0.406 | relative viability (COR-L 105; first compound 2.53 µM): 0.554 | relative viability (NCI-H1395; first compound 0.08 µM): 0.43 | relative viability (NCI-H1395; first compound 0.253 µM): 0.45 | relative viability (NCI-H1395; first compound 0.8 µM): 0.464 | relative viability (NCI-H1395; first compound 2.53 µM): 0.486
